Experimental data as given in the NIST ThermoML archive (doi:10.1021/je050503q).

Assay: xn = mol fraction of the nth substance listed
Conditions: Liquid

COCCOCCOCCOC [2,5,8,11-tetraoxadodecane] + FCC(F)(F)F
Conditions	mass density [kg/m3]
283.27 K, 1086 kPa, x2 = 0.9485	1245.33
283.27 K, 2000 kPa, x2 = 0.9485	1248.44
283.27 K, 3016 kPa, x2 = 0.9485	1251.83
283.27 K, 4003 kPa, x2 = 0.9485	1255.03
283.27 K, 5009 kPa, x2 = 0.9485	1258.22
283.27 K, 6019 kPa, x2 = 0.9485	1261.33
283.28 K, 1070 kPa, x2 = 0.9798	1255.94
283.28 K, 1986 kPa, x2 = 0.9798	1259.56
283.28 K, 2984 kPa, x2 = 0.9798	1263.39
283.28 K, 4004 kPa, x2 = 0.9798	1267.2
283.28 K, 4996 kPa, x2 = 0.9798	1270.8
283.28 K, 5989 kPa, x2 = 0.9798	1274.3
283.29 K, 1047 kPa, x2 = 0.9655	1251.56
283.29 K, 1992 kPa, x2 = 0.9655	1255.06
283.29 K, 2996 kPa, x2 = 0.9655	1258.69
283.29 K, 3988 kPa, x2 = 0.9655	1262.16
283.29 K, 4999 kPa, x2 = 0.9655	1265.62
283.29 K, 5987 kPa, x2 = 0.9655	1268.91
293.3 K, 1086 kPa, x2 = 0.9485	1215.38
293.3 K, 2016 kPa, x2 = 0.9485	1219.06
293.3 K, 2998 kPa, x2 = 0.9485	1222.84
293.3 K, 3985 kPa, x2 = 0.9485	1226.51
293.3 K, 5000 kPa, x2 = 0.9485	1230.18
293.3 K, 6018 kPa, x2 = 0.9485	1233.75
293.31 K, 1086 kPa, x2 = 0.9798	1222.61
293.31 K, 2003 kPa, x2 = 0.9798	1226.87
293.31 K, 2985 kPa, x2 = 0.9798	1231.29
293.31 K, 4010 kPa, x2 = 0.9798	1235.72
293.31 K, 4992 kPa, x2 = 0.9798	1239.84
293.31 K, 6009 kPa, x2 = 0.9798	1243.96
293.32 K, 1047 kPa, x2 = 0.9655	1219.81
293.32 K, 2002 kPa, x2 = 0.9655	1223.94
293.32 K, 2997 kPa, x2 = 0.9655	1228.11
293.32 K, 3984 kPa, x2 = 0.9655	1232.11
293.32 K, 5001 kPa, x2 = 0.9655	1236.1
293.32 K, 5994 kPa, x2 = 0.9655	1239.88
303.33 K, 1176 kPa, x2 = 0.9798	1187.73
303.33 K, 1189 kPa, x2 = 0.9485	1184.28
303.33 K, 1998 kPa, x2 = 0.9485	1188.03
303.33 K, 2990 kPa, x2 = 0.9485	1192.49
303.33 K, 3984 kPa, x2 = 0.9485	1196.79
303.33 K, 5011 kPa, x2 = 0.9485	1201.05
303.33 K, 5992 kPa, x2 = 0.9485	1205.02
303.34 K, 2006 kPa, x2 = 0.9798	1192.33
303.34 K, 3006 kPa, x2 = 0.9798	1197.65
303.34 K, 4000 kPa, x2 = 0.9798	1202.73
303.34 K, 4990 kPa, x2 = 0.9798	1207.56
303.34 K, 6008 kPa, x2 = 0.9798	1212.35
303.35 K, 1189 kPa, x2 = 0.9655	1186.88
303.35 K, 2013 kPa, x2 = 0.9655	1191.11
303.35 K, 2992 kPa, x2 = 0.9655	1195.95
303.35 K, 4008 kPa, x2 = 0.9655	1200.76
303.35 K, 4992 kPa, x2 = 0.9655	1205.25
303.35 K, 5987 kPa, x2 = 0.9655	1209.62
313.35 K, 1434 kPa, x2 = 0.9485	1152.06
313.35 K, 1434 kPa, x2 = 0.9798	1151.46
313.35 K, 2004 kPa, x2 = 0.9798	1155.29
313.35 K, 2014 kPa, x2 = 0.9485	1155.26
313.35 K, 2982 kPa, x2 = 0.9798	1161.59
313.35 K, 2990 kPa, x2 = 0.9485	1160.47
313.35 K, 3990 kPa, x2 = 0.9485	1165.56
313.35 K, 4985 kPa, x2 = 0.9485	1170.41
313.35 K, 4986 kPa, x2 = 0.9798	1173.51
313.35 K, 5997 kPa, x2 = 0.9485	1175.14
313.36 K, 1436 kPa, x2 = 0.9655	1152.44
313.36 K, 3010 kPa, x2 = 0.9655	1161.91
313.36 K, 3986 kPa, x2 = 0.9798	1167.71
313.36 K, 5983 kPa, x2 = 0.9798	1179.03
313.37 K, 2008 kPa, x2 = 0.9655	1155.97
313.37 K, 4000 kPa, x2 = 0.9655	1167.49
313.37 K, 5010 kPa, x2 = 0.9655	1172.9
313.37 K, 5984 kPa, x2 = 0.9655	1177.91
323.39 K, 1731 kPa, x2 = 0.9798	1112.96
323.39 K, 1737 kPa, x2 = 0.9485	1118.26
323.39 K, 1989 kPa, x2 = 0.9798	1115.09
323.39 K, 1994 kPa, x2 = 0.9485	1119.99
323.39 K, 3007 kPa, x2 = 0.9485	1126.53
323.39 K, 3987 kPa, x2 = 0.9485	1132.49
323.39 K, 4990 kPa, x2 = 0.9485	1138.29
323.39 K, 5982 kPa, x2 = 0.9485	1143.72
323.4 K, 3001 kPa, x2 = 0.9798	1123.14
323.4 K, 4006 kPa, x2 = 0.9798	1130.6
323.4 K, 4997 kPa, x2 = 0.9798	1137.51
323.4 K, 5982 kPa, x2 = 0.9798	1144
323.41 K, 1737 kPa, x2 = 0.9655	1116.04
323.41 K, 1998 kPa, x2 = 0.9655	1118.03
323.41 K, 3002 kPa, x2 = 0.9655	1125.33
323.41 K, 4001 kPa, x2 = 0.9655	1132.15
323.41 K, 4985 kPa, x2 = 0.9655	1138.48
323.41 K, 6012 kPa, x2 = 0.9655	1144.72
